Measurements as given in patent US12398107B2, “Fungicidal nitroanilino substituted pyrazoles” (FMC Corporation, priority 2018, dated 2025).

Assays:
Type in all cases: in vivo
[1] = test system: Blumeria graminis f. sp. tritici; assay: Test C: wheat powdery mildew, preventive spray on wheat seedlings; settings: 50 ppm, rated after 8 days, 100 = 100% disease control, 0 = no control
Outline: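 Wheat seedlings got a run-off spray of test suspension (ppm in acetone/water 50/50, 250 ppm PEG400, acetone 3% of volume), then spore-dust inoculation with wheat powdery mildew one day later. After 8 days' growth-chamber incubation at 20° C, disease control scored visually on a 0–100 scale versus untreated controls.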

[2] = test system: Puccinia recondita f. sp. tritici; assay: Test B: wheat leaf rust, preventive spray on wheat seedlings; settings: 50 ppm, 100 = 100% disease control, 0 = no control relative to controls
Outline: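 Wheat seedlings got a run-off spray (ppm, acetone/water 50/50, 250 ppm PEG400) and one day later a spore inoculum. After 24 h at 20° C. in saturated air and 7 days at 20° C., disease was scored as % control relative to controls (100 = full control).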

Phakopsora pachyrhizi = assay: Test D: Asian soybean rust, preventive spray on soybean seedlings; settings: 50 ppm, 100 = 100% disease control, 0 = no control
Outline: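 Soybean seedlings sprayed to run-off with compound suspension (ppm, in 50/50 acetone/water with 250 ppm PEG400), inoculated next day with P. pachyrhizi spores, held 24 h saturated at 22°C then 8 days at 22°C. Visual rating 0-100% disease control relative to controls.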

Septoria tritici = assay: Test A: wheat leaf blotch, preventive spray on wheat seedlings; settings: 50 ppm, 100 = 100% disease control, 0 = no control relative to controls
Outline: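 Preventive test: seedlings sprayed to run-off one day before Septoria tritici spore inoculation, with ppm doses in acetone/water containing 250 ppm PEG400. After 48 h at 24 °C in saturated air and 17 days at 20 °C, plants were scored 0–100 for disease control versus untreated controls.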

Alternaria solani = assay: Test F: tomato early blight, preventive spray on tomato seedlings; settings: 50 ppm, 100 = 100% disease control, 0 = no control
Outline: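 Preventive test: one day after seedlings were sprayed to run-off with ppm-level suspensions (acetone/water 50/50, 250 ppm PEG400), A. solani spore inoculation followed. Incubation was 48 h at 27° C in saturated air plus 3 days at 20° C; disease control was scored visually versus controls (100 = full control).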

Botrytis cinerea = assay: Test E: tomato Botrytis, preventive spray on tomato seedlings; settings: 50 ppm, 100 = 100% disease control, 0 = no control
Outline: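 Preventive test: spore inoculation one day after run-off spraying of compound suspension (3% acetone, acetone/water 50/50, 250 ppm PEG400). Incubation 20 °C saturated humidity for 48 h, followed by 3 days at 24 °C growth chamber; disease control scored visually, 100 = full control.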

SMILES | Test C disease control rating (wheat powdery mildew) [1] [%] | Test B disease control rating (wheat leaf rust) [2] [%] | Test D disease control rating (Asian soybean rust) (Phakopsora pachyrhizi) [%] | Test A disease control rating (wheat leaf blotch) (Septoria tritici) [%] | Test F disease control rating (tomato early blight) (Alternaria solani) [%] | Test E disease control rating (tomato Botrytis) (Botrytis cinerea) [%]
Cc1nn(C)c(Nc2cc(Cl)ccc2[N+](=O)[O-])c1-c1ccc(F)cc1Cl [Compound 130] | 20 | 86 | 0 | 85 | 0 | 85
Cc1nn(C)c(Nc2c(F)cc(Cl)cc2[N+](=O)[O-])c1-c1ccc(F)cc1Br [Compound 131] | 99 | 100 | 80 | 100 | 100 | 99
Cc1nn(C)c(Nc2c(F)cc(Br)cc2[N+](=O)[O-])c1-c1ccc(Cl)cc1Cl [Compound 132] | 47 | 98 | 0 | 100 | 96 | 99
Cc1nn(C)c(Nc2c(Cl)cccc2[N+](=O)[O-])c1-c1ccc(Cl)cc1Cl [Compound 133] | 0 | 86 | 0 | 100 | 0 | 97
Cc1nn(C)c(Nc2ccccc2[N+](=O)[O-])c1-c1ccc(C#N)cc1F [Compound 134] | 71 | 23 | 0 | 100 | 0 | 70
Cc1nn(C)c(Nc2ccccc2[N+](=O)[O-])c1-c1c(F)cccc1F [Compound 135] | 93 | 68 | 0 | 100 | 0 | 99
Cc1nn(C)c(Nc2ccccc2[N+](=O)[O-])c1-c1c(F)cccc1Cl [Compound 136] | 88 | 80 | 0 | 100 | 0 | 99
CCc1nn(C)c(Nc2c(F)cc(C)cc2[N+](=O)[O-])c1-c1ccc(F)cc1Cl [Compound 137] | 100 | 100 | 91 | 100 | 99 | 99
COc1cc(F)c(Nc2c(-c3ccc(Cl)cc3Cl)c(C)nn2C)c([N+](=O)[O-])c1 [Compound 138] | 93 | 100 | 67 | 100 | 100 | 99
Cc1nn(C)c(Nc2ccccc2[N+](=O)[O-])c1-c1ccc(F)cc1Br [Compound 139] | 76 | 86 | 0 | 98 | 33 | 100
COc1ccc(-c2c(C)nn(C)c2Nc2ccccc2[N+](=O)[O-])c(Cl)c1 [Compound 140] | 31 | 86 | 0 | 99 | 93 | 100
COc1cc(Cl)c(Nc2c(-c3ccc(F)cc3F)c(C)nn2C)c([N+](=O)[O-])c1 [Compound 141] | 99 | 100 | 0 | 99 | 83 | 99
COc1ccc(Nc2c(-c3ccc(Cl)cc3Cl)c(C)nn2C)c([N+](=O)[O-])c1 [Compound 142] | 39 | 91 | 25 | 100 | 80 | 99
Cc1cc(F)c(Nc2c(-c3ccc(Cl)cc3Cl)c(C)nn2C)c([N+](=O)[O-])c1 [Compound 143] | 96 | 100 | 87 | 99 | 100 | 99
Cc1cccc([N+](=O)[O-])c1Nc1c(-c2ccc(Cl)cc2Cl)c(C)nn1C [Compound 144] | 35 | 68 | 69 | 100 | 0 | 0
Cc1cc(Cl)c(Nc2c(-c3ccc(Cl)cc3Cl)c(C)nn2C)c([N+](=O)[O-])c1 [Compound 145] | 52 | 92 | 0 | 98 | 24 | 85
Cc1nn(C)c(Nc2c(Cl)cc(Cl)cc2[N+](=O)[O-])c1-c1ccc(Cl)cc1Cl [Compound 146] | 0 | 98 | 0 | 97 | 40 | 0
COc1cc(F)c(-c2c(C)nn(C)c2Nc2ccccc2[N+](=O)[O-])c(F)c1 [Compound 147] | 97 | 86 | 0 | 96 | 99 | 100
Cc1nn(C)c(Nc2ccccc2[N+](=O)[O-])c1-c1c(F)cc(F)cc1Cl [Compound 148] | 98 | 99 | 13 | 100 | 100 | 99
